Assay results: the supplement of paper PMC10883282

How the values were obtained:
Assay in all cases: relative viability vs DMSO control (72 h) (fraction); higher = more viable cells
[1] = tested on: HT1080
Method in brief: (§1)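 After seeding at densities set for 80–90% confluence in 384-well plates, sarcoma cell lines waited 24 h before 2.5 µl of serially diluted compound was added. Source plates held 10 mM down to 0.0002 mM. Plates were incubated 72 h at 37 °C with 5% CO2, with 0.1% DMSO vehicle and a 5 µM positive control, and relative viability was taken from ATPLite as percent growth averaged over up to triplicate wells, with 1 set as full and 0 as none.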

[2] = tested on: SW872
Method in brief: as §1

[3] = tested on: SK-LMS-1
Method in brief: as §1

[4] = tested on: KHOS-NP
Method in brief: as §1

[5] = tested on: HS729
Method in brief: as §1

[6] = tested on: SK-ES-1
Method in brief: as §1

[7] = tested on: A204
Method in brief: as §1

[8] = tested on: VA-ES-BJ
Method in brief: as §1

[9] = tested on: SW684
Method in brief: as §1

[10] = tested on: G401
Method in brief: as §1

[11] = tested on: SW982
Method in brief: as §1

[12] = tested on: RD-ES
Method in brief: as §1

COc1cc(Nc2c(C#N)cnc3cc(OCCCN4CCN(C)CC4)c(OC)cc23)c(Cl)cc1Cl [Bosutinib]
Settings	relative viability
[1], 0.00017 µM	1.14
[1], 0.00051 µM	1.14
[1], 0.00152 µM	1.09
[1], 0.00457 µM	1.14
[1], 0.01372 µM	1.11
[1], 0.04115 µM	1.16
[1], 0.1235 µM	1.14
[1], 0.3704 µM	1.14
[1], 1.111 µM	1.05
[1], 3.333 µM	0.775
[1], 10 µM	0.0548
[2], 0.00017 µM	1.1
[2], 0.00051 µM	1.131
[2], 0.00152 µM	1.12
[2], 0.00457 µM	1.12
[2], 0.01372 µM	1.12
[2], 0.04115 µM	1.123
[2], 0.1235 µM	1.085
[2], 0.3704 µM	0.984
[2], 1.111 µM	0.727
[2], 3.333 µM	0.555
[2], 10 µM	0.0547
[3], 0.00017 µM	1.06
[3], 0.00051 µM	1.07
[3], 0.00152 µM	1.08
[3], 0.00457 µM	1.07
[3], 0.01372 µM	1.1
[3], 0.04115 µM	1.16
[3], 0.1235 µM	1.22
[3], 0.3704 µM	1.24
[3], 1.111 µM	1.1
[3], 3.333 µM	0.873
[3], 10 µM	0.0696
[4], 0.00017 µM	1.08
[4], 0.00051 µM	1.12
[4], 0.00152 µM	1.13
[4], 0.00457 µM	1.11
[4], 0.01372 µM	1.117
[4], 0.04115 µM	1.11
[4], 0.1235 µM	1.1
[4], 0.3704 µM	1.01
[4], 1.111 µM	0.837
[4], 3.333 µM	0.482
[4], 10 µM	0.264
[5], 0.00017 µM	1.06
[5], 0.00051 µM	1.04
[5], 0.00152 µM	1.1
[5], 0.00457 µM	1.05
[5], 0.01372 µM	1.07
[5], 0.04115 µM	1.05
[5], 0.1235 µM	0.978
[5], 0.3704 µM	0.922
[5], 1.111 µM	0.773
[5], 3.333 µM	0.79
[5], 10 µM	0.107
[6], 0.00017 µM	1.05
[6], 0.00051 µM	1.06
[6], 0.00152 µM	1.06
[6], 0.00457 µM	1.07
[6], 0.01372 µM	1
[6], 0.04115 µM	1.02
[6], 0.1235 µM	0.935
[6], 0.3704 µM	0.732
[6], 1.111 µM	0.482
[6], 3.333 µM	0.303
[6], 10 µM	0.136
[7], 0.00017 µM	1.09
[7], 0.00051 µM	1.12
[7], 0.00152 µM	1.09
[7], 0.00457 µM	1.13
[7], 0.01372 µM	1.17
[7], 0.04115 µM	1.21
[7], 0.1235 µM	1.23
[7], 0.3704 µM	1.21
[7], 1.111 µM	1.111
[7], 3.333 µM	0.807
[7], 10 µM	0.259
[8], 0.00017 µM	1.11
[8], 0.00051 µM	1.14
[8], 0.00152 µM	1.12
[8], 0.00457 µM	1.12
[8], 0.01372 µM	1.14
[8], 0.04115 µM	1.16
[8], 0.1235 µM	1.14
[8], 0.3704 µM	1.03
[8], 1.111 µM	0.729
[8], 3.333 µM	0.545
[8], 10 µM	0.0514
[9], 0.00017 µM	1.24
[9], 0.00051 µM	1.25
[9], 0.00152 µM	1.306
[9], 0.00457 µM	1.27
[9], 0.01372 µM	1.25
[9], 0.04115 µM	1.28
[9], 0.1235 µM	1.33
[9], 0.3704 µM	1.31
[9], 1.111 µM	1.05
[9], 3.333 µM	0.6
[9], 10 µM	0.101
[10], 0.00017 µM	1.09
[10], 0.00051 µM	1.09
[10], 0.00152 µM	1.08
[10], 0.00457 µM	1.06
[10], 0.01372 µM	1.09
[10], 0.04115 µM	1.09
[10], 0.1235 µM	1.08
[10], 0.3704 µM	1.08
[10], 1.111 µM	1.03
[10], 3.333 µM	0.909
[10], 10 µM	0.0203
[11], 0.00017 µM	1.05
[11], 0.00051 µM	1.08
[11], 0.00152 µM	1.08
[11], 0.00457 µM	1.08
[11], 0.01372 µM	1.09
[11], 0.04115 µM	1.08
[11], 0.1235 µM	1.05
[11], 0.3704 µM	0.816
[11], 1.111 µM	0.511
[11], 3.333 µM	0.359
[11], 10 µM	0.0126
[12], 0.00017 µM	0.965
[12], 0.00051 µM	0.981
[12], 0.00152 µM	0.987
[12], 0.00457 µM	0.972
[12], 0.01372 µM	0.98
[12], 0.04115 µM	0.974
[12], 0.1235 µM	0.941
[12], 0.3704 µM	0.906
[12], 1.111 µM	0.715
[12], 3.333 µM	0.472
[12], 10 µM	0.0125
